Results taken from paper PMC4955970, “Stable, synthetic analogs of diadenosine tetraphosphate inhibit rat and human P2X3 receptors and inflammatory pain” (Molecular Pain, 2016).
Like-named read-outs stand apart in the source and are kept apart here.

Legend:
[1] = target: T1, rat homomeric P2X3 receptors (Rattus norvegicus, UniProt P49654); assay: Whole-cell patch clamp on HEK293 cells expressing rat homomeric P2X3R (activation and HAD inhibition of α,β-meATP test pulses); assay type: cell-based; conditions: for nH of activation curve: partial agonist dose-response
T1 construct: transfected with rat or human full-length P2X3 cDNA subcloned into pIRES2-EGFP; expressed in transfected cells; host or cells: HEK293T (HEK293 in the results)
T1 sequence (P49654 1-397): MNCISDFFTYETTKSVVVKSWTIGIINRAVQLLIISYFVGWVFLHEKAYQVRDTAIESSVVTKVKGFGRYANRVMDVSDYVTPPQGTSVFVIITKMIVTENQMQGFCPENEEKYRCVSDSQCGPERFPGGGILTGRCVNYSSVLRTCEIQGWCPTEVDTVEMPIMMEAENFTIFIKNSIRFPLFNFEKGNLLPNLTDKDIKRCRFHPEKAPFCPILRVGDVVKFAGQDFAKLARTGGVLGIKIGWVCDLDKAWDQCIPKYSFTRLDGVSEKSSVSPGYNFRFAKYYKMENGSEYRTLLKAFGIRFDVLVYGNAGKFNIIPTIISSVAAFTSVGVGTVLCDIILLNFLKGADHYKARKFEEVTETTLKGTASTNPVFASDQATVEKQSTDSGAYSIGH
Procedure: Rat trigeminal, nodose, or dorsal root ganglion (TG, NG, and DRG, respectivley) neurons in culture were prepared as described previously.[46],[47] Neurons were plated on poly-L-lysine (0.2 mg/ml)-coated Petri dishes and cultured for one to two days under an atmosphere containing 5% CO2. Cells were used within two days of plating when they lacked processes. HEK293T cells were prepared as reported previously[32],[48] and transfected with rat or human full-length P2X3 cDNA subcloned into pIRES2-EGFP (Clontech, Mountain View, CA, USA).
TG, NG, DRG, or HEK cells were recorded in the whole-cell configuration while being continuously superfused (at 2 ml/min) with control solution containing (in mM): 152 NaCl, 5 KCl, 1 MgCl2, 2 CaCl2, 10 glucose, and 10 HEPES; pH was adjusted to 7.4 with NaOH and osmolarity was adjusted to 320 mOsM with glucose. […] Responses to selective P2X3R agonist α,β-methylene-ATP (α,β-meATP; resistant to ectoATPase hydrolysis, Sigma-Aldrich) were measured using an EPC-9 amplifier operated by HEKA Patch Master software (HEKA Electronik, Germany). Cells were voltage-clamped at −70 mV. In most cells, series resistance was compensated by 80%. To determine EC50 values, dose-response curves were constructed for α,β-meATP by administering different agonist doses same cells and fitting data to a logistic equation (Origin 8.0, Microcal, Northampton, MA).
Agonists and antagonists were applied (usually for 2 s) via a rapid superfusion system (Rapid Solution Changer RSC-200; BioLogic Science Instruments, Grenoble, France) placed 100 to 150 µm near the cell. The time for the solution exchange across the cell was approximately 30 ms, as judged with liquid junction potential measurements. All chemicals, including enzymes for cell culture, were from Sigma-Aldrich (St. Louis, MO). Culture media were obtained from Invitrogen (Milan, Italy).
The peak amplitudes of the responses were measured using HEKA Patch Master software. For each agonist, dose-response plots were constructed by normalizing data with respect to the maximum response. All data are presented as mean ± SEM (n = the number of cells) with statistical significance assessed by paired t-test (for parametric data) or Mann-Whitney rank-sum test (for nonparametric data). Best fits of data with a sigmoid function were compared with respective control fits using Origin 8.0 software. A value of p < 0.05 was accepted as indicative of statistically significant difference.
Figure 2. Activation and inhibition of rat P2X3 receptors by AppNHppA. Top: Experimental protocol. Test pulses of 10 µM of α,β-meATP were delivered every 2 min. After two control pulses, AppNHppA at different concentrations was applied for 6 min. Example traces of P2X3R-mediated currents in control and after 2 min application of 10 nM (a) and 3 μM (b) of AppNHppA (corresponding to the part of the experimental protocol outlined by a dotted box). (c) The time course of the current inhibition by AppNHppA at different (1 nM–3 μM) concentrations (n = 4–6). Current amplitudes are normalized to control. (d) Dose-response curves for the activation and inhibition of P2X3-mediated currents by AppNHppA.

[2] = system: CFA-induced thermal hyperalgesia; assay: Hargreaves plantar test, CFA-induced thermal hyperalgesia; assay type: in vivo, rat; conditions: 20 µM; for period after intraplantar injection in which antinociceptive effect was observed: inflamed hindpaw
Procedure: To induce chronic inflammatory hyperalgesia, rats were injected with complete Freund’s adjuvant (CFA, 100 μl of 50% solution) into the plantar surface of the right hindpaw 24 h prior to testing. Control animals were injected with 100 μl of pure saline. Injections of AppCH2ppA and AppNHppA (100 nM–100 μM) in 100 μl of 0.9% saline were made just before the beginning of the plantar test.
For intrathecal injection, a polyethylene-10 catheter was inserted into the rat’s subarachnoid space through a small incision at the cisterna magna, and the tip of the catheter was implanted at the L4 spinal segmental level. Animals were allowed to recover for at least four days before behavior tests. AppCH2ppA or vehicle (saline) was injected intrathecally (10 µl) and flushed with 10 µl of saline.
The Hargreaves technique[51] was used for thermal hyperalgesia studies (using the Ugo Basile Model 7370 Plantar Test). Paw withdrawal responses to noxious heat stimuli were measured in rats as described.[52] To measure response to noxious heat stimuli, each animal was placed in a Plexiglas chamber on a glass plate located above a light box. Radiant heat was applied by focused infrared (IR) beam to the middle of the plantar surface of rat hindpaw. When the animal lifted its foot, the IR beam was turned off. The time interval between the start of the IR beam and the foot lift was defined as the paw withdrawal latency. Each trial was repeated 13 times at 20-min intervals for each paw. A cut-off time of 30 s was used to prevent paw tissue damage.
Figure 10. Ap4A analogs reduced thermal hyperalgesia induced by complete Freund adjuvant (CFA) (Hargreaves plantar test). (a) Time course of the effects of subcutaneous injection of AppCH2ppA (20 µM) and AppNHppA (20 µM) on the paw withdrawal latency (PWL). […] (b) Bar graphs illustrating the effects of AppCH2ppA (20 µM) and AppNHppA (20 µM) on PWL. (c) Time course of effects of intraplantar and intrathecal administration of AppCH2ppA (20 µM) on PWL. […] (d) Bar graphs illustrating effects of intathecal and intraplantar administration of AppCH2ppA (20 µM) on the PWL (* vs. CFA, p < 0.05; *** vs. CFA, p < 0.001; ### vs. intrathecal, p < 0.001; seven rats for control, eight rats for CFA, six rats for intrathecal, and six rats for each compound for intraplantar injection were used).

Nc1ncnc2c1ncn2[C@@H]1O[C@H](COP(=O)(O)OP(=O)(O)NP(=O)(O)OP(=O)(O)OC[C@H]2O[C@@H](n3cnc4c(N)ncnc43)[C@H](O)[C@@H]2O)[C@@H](O)[C@H]1O [AppNHppA, diadenosine 5′,5′′′-P^1,P^4-(β,γ-imido)tetraphosphate]
IC50 [1]: 0.2 ± 0.04 µM
amplitude of α,β-meATP test response after application ([1]; 10 nM, test pulse 10 µM α,β-meATP, 2-min interval): almost unchanged
reduction of α,β-meATP test responses (HAD effect) ([1]; 100 nM, below activation threshold): 38.2 ± 8.5%
inhibition of α,β-meATP test responses (HAD effect) ([1]; 3 µM, test pulse 10 µM α,β-meATP, 2-min interval): complete inhibition
induction of membrane currents ([1]; 0.1 or 1 µM, HEK293 rat homomeric P2X3R): not to induce membrane currents
currents generated ([1]; 10 or 100 µM, HEK293 rat homomeric P2X3R): small and slowly desensitizing currents
EC50 ([1]; EC50 of activation (summary restatement), rat P2X3R, summary statement): 41 µM
EC50 ([1]; EC50 of partial agonist P2X3R activation, HEK293 rat P2X3R): 41.6 ± 1.3 µM
inhibitory action in presence of G-protein inhibitor GDP-β-S ([1]; GDP-β-S 500 µM introduced into cells): remained unchanged
inhibition at 1 µM ([1]; HEK293, read-out: inhibitory action on P2X3 receptors with GDP-β-S in intracellular solution): 23.9 ± 5.24%
inhibition at 1 µM ([1]; HEK293, read-out: inhibitory action on P2X3 receptors with GTP in intracellular solution): 23.4 ± 2.01%
agonist type at homomeric P2X3Rs ([1]; compared with full agonist α,β-meATP): only a partial agonist
nH of activation curve [1]: 1.58 ± 0.05
EC50/IC50 ratio (activation/inhibition index) ([1]; rat P2X3R): 205
current response relative to response induced by 10 µM α,β-meATP ([1]; saturating 1 mM, same cell): 41.2 ± 13%
duration of antinociceptive effect, intraplantar ([2]; intraplantar): 180 min
time after intraplantar injection at which effect became potent ([2]; intraplantar): 20 min
period after intraplantar injection in which antinociceptive effect was observed ([2]; intraplantar): ≤ 200 min

Nc1ncnc2c1ncn2[C@@H]1O[C@H](COP(=O)(O)OP(=O)(O)CP(=O)(O)OP(=O)(O)OC[C@H]2O[C@@H](n3cnc4c(N)ncnc43)C(O)C2O)C(O)C1O (stereo partly drawn) [AppCH2ppA, diadenosine 5′,5′′′-P^1,P^4-(β,γ-methylene)tetraphosphate]
depression of P2X3R currents at high rate of activation ([1]; 1 µM, α,β-meATP pulses every 30 s): 81 ± 3%
depression of P2X3R currents at low rate of activation ([1]; 1 µM, α,β-meATP pulses every 2 min): 61.3 ± 5%
IC50 ([1]; 6 min after drug application, test pulse 10 µM α,β-meATP, read-out: IC50 of HAD inhibition of P2X3R currents): 0.55 ± 0.2 µM
EC50 ([1]; HEK293 rat P2X3R, read-out: EC50 of partial agonist P2X3R activation): 9.3 ± 1.7 µM
nH of activation curve [1]: 2.27 ± 0.56
duration of antinociceptive effect, intraplantar ([2]; intraplantar): 180 min
pain inhibition, intraplantar administration ([2]; intraplantar): 58%
time after intraplantar injection at which effect became potent ([2]; intraplantar): 20 min
period after intraplantar injection in which antinociceptive effect was observed ([2]; intraplantar): ≤ 200 min
duration of antinociceptive effect, intrathecal ([2]; intrathecal): 60 min
pain inhibition, intrathecal administration ([2]; intrathecal): 22%
time after intrathecal injection at which effects were observed ([2]; intrathecal): 120 min
